# From patent publication US8748417B2, “Amino-pyrrolidine-azetidine diamides as monoacylglycerol lipase inhibitors” (Janssen Pharmaceutica, NV, priority 2010, dated 2014)
# Positions count from the first letter of the chain named.
# Legend:
# Format in all cases: biochemical
# [1] = molecular target: T1, purified mutant MGL (mut-MGLL 11-313 L179S L186S) (Homo sapiens, UniProt Q99685, L169S/L176S); assay: MGL enzyme activity assay (4MU-B cleavage), mutant MGL; details: mutant MGL 5 nM, 4MU-B 10 μM, 37° C.; read-out: MGL mutant inh IC50
# T1 construct: purified mutant MGL (mut-MGLL 11-313 L179S L186S)
# T1 sequence (Q99685 1-303 L169S/L176S): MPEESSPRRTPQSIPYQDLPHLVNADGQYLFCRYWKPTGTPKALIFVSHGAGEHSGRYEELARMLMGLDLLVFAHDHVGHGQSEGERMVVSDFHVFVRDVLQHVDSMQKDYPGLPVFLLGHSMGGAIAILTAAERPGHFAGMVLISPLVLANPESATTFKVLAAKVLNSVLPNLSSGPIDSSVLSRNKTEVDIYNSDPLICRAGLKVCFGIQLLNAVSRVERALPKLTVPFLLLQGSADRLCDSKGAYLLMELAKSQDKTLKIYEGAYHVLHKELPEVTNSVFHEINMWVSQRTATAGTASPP
# Method: All rate-based assays were performed in black 384-well polypropylene PCR microplates (Abgene) in a total volume of 30 μL. Substrate 4-methylumbelliferyl butyrate (4MU-B; Sigma) and either purified mutant MGL (mut-MGLL 11-313 L179S L186S) or purified wild type MGL (wt-MGLL 6H-11-313) were diluted separately into 20 mM PIPES buffer (pH=7.0), containing 150 mM NaCl and 0.001% Tween 20. Compounds of Formula (I) were pre-dispensed (50 nL) into the assay plate using a Cartesian Hummingbird prior to adding 4MU-B (25 μL of 1.2× solution to a final concentration of 10 μM) followed by enzyme (5 μL of a 6× solution to a final concentration of 5 nM) to initiate the reaction. Final compound concentrations ranged from 17 to 0.0003 μM. The fluorescence change due to 4MU-B cleavage was monitored with excitation and emission wavelengths of 335 and 440 nm, respectively, and a bandwidth of 10 nm (Safire^2, Tecan) at 37° C. for 5 min.
# The IC50 values for the following compounds were determined using Microsoft Office Excel from a fit of the equation to the concentration-response plot of the fractional activity as a function of inhibitor concentration.
# [2] = test system: MGL (rat brain homogenate); assay: 2-AG accumulation assay in rat brain homogenate; details: percent of vehicle 2-AG accumulation; for Rat Brain 2AG % VehCntrl (%) @10 μM: compound 10 μM; for Rat Brain 2AG % VehCntrl (%) @1 μM: compound 1 μM
# How it was run: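 Rat brain homogenate was incubated with compound for 15 min at 37° C., after which CaCl2 was added to a final concentration of 10 mM and incubation continued for 15 min at 37° C. in 5 mL total. Reactions were stopped with 6 mL of 2:1 chloroform/methanol, and 2-AG accumulated in the organic phase was quantified by HPLC/MS.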
# [3] = molecular target: T2, purified wild type MGL (wt-MGLL 6H-11-313) (Homo sapiens, UniProt Q99685); assay: MGL enzyme activity assay (4MU-B cleavage), wild type MGL; details: wild type MGL 5 nM, 4MU-B 10 μM, 37° C.; read-out: MGL wild type inh IC50
# T2 construct: purified wild type MGL (wt-MGLL 6H-11-313)
# T2 sequence (Q99685 1-303): T1 sequence (Q99685 1-303 L169S/L176S) with S169L, S176L
# How it was run: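 Enzyme in 20 mM PIPES pH 7.0, 150 mM NaCl, 0.001% Tween 20 with 4MU-B at 10 μM final and MGL at 5 nM final; compounds 17 to 0.0003 μM final, enzyme added last. Fluorescence (ex 335/em 440 nm) followed at 37° C for 5 min; IC50 from fit of fractional activity versus inhibitor concentration.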
Structure (SMILES),IC50 [1],IC50 [3],Rat Brain 2AG % VehCntrl (%) @10 μM [2],Rat Brain 2AG % VehCntrl (%) @1 μM [2]
"O=C(c1ccc(Cc2ccccc2)cc1)N1CC(N[C@H]2CCN(C(=O)c3nccs3)C2)C1 [Cpd 3, (3S)-N-{1-[(4-Benzylphenyl)carbonyl]azetidin-3-yl}-1-(1,3-thiazol-2-ylcarbonyl)pyrrolidin-3-amine]",21.8 nM,–,844%,–
"O=C(c1ccc(Cc2ccccc2)cc1)N1CC(N[C@H]2CCN(C(=O)c3ccsc3)C2)C1 [Cpd 5, (3S)-N-{1-[(4-Benzylphenyl)carbonyl]azetidin-3-yl}-1-(thiophen-3-ylcarbonyl)pyrrolidin-3-amine]",< 5 nM,–,962%,–
"CN(C1CN(C(=O)c2ccc(Cc3ccccc3)cc2)C1)[C@H]1CCN(C(=O)c2ccccc2)C1 [Cpd 14, (3S)-N-{1-[(4-Benzylphenyl)carbonyl]azetidin-3-yl}-N-methyl-1-(phenylcarbonyl) pyrrolidin-3-amine]",5 nM,–,–,484%
"O=C(c1ccc(-c2cc(Cl)cc(Cl)c2)cc1)N1CC(N[C@H]2CCN(C(=O)c3ccccc3)C2)C1 [Cpd 17, (3S)-N-{1-[(3′,5′-Dichlorobiphenyl-4-yl)carbonyl]azetidin-3-yl}-1-(phenylcarbonyl)pyrrolidin-3-amine]",41 nM,–,–,441%
"O=C(c1ccccc1)N1CC[C@H](NC2CN(C(=O)c3cc4ccc(C(F)(F)F)cc4s3)C2)C1 [Cpd 20, (3S)-1-(Phenylcarbonyl)-N-(1-{[6-(trifluoromethyl)-1-benzothiophen-2-yl]carbonyl}azetidin-3-yl)pyrrolidin-3-amine]",80.4 nM,–,–,304%
"O=C(c1ccccc1)N1CC[C@H](NC2CN(C(=O)c3sc4cc(Br)ccc4c3Cl)C2)C1 [Cpd 21, (3S)-N-{1-[(6-Bromo-3-chloro-1-benzothiophen-2-yl)carbonyl]azetidin-3-yl}-1-(phenylcarbonyl)pyrrolidin-3-amine]",5 nM,–,–,596%
"O=C(c1ccccc1)N1CC[C@H](NC2CN(C(=O)c3sc4cc(C(F)(F)F)ccc4c3Cl)C2)C1 [Cpd 28, (3S)-N-(1-{[3-Chloro-6-(trifluoromethyl)-1-benzothiophen-2-yl]carbonyl}azetidin-3-yl)-1-(phenylcarbonyl)pyrrolidin-3-amine]",< 5 nM,–,–,511%
"O=C(c1ccc2c(Br)cccc2c1)N1CC(N(O)[C@H]2CCN(C(=O)c3ccccc3)C2)C1 [Cpd 34, (3S)-N-{1-[(5-Bromonaphthalen-2-yl)carbonyl]azetidin-3-yl}-N-hydroxy-1-(phenylcarbonyl)pyrrolidin-3-amine]",13.2 nM,–,–,645%
"Cc1c(C(=O)N2CC(N[C@H]3CCN(C(=O)c4ccccc4)C3)C2)sc2ccc(Cl)cc12 [Cpd 37, (3S)-N-{1-[(5-Chloro-3-methyl-1-benzothiophen-2-yl)carbonyl]azetidin-3-yl}-1-(phenylcarbonyl)pyrrolidin-3-amine]",47.7 nM,–,–,381%
"O=C(c1ccccc1)N1CC[C@H](NC2CN(C(=O)c3cc4cc(Br)ccc4s3)C2)C1 [Cpd 49, (3S)-N-{1-[(5-Bromo-1-benzothiophen-2-yl)carbonyl]azetidin-3-yl}-1-(phenylcarbonyl)pyrrolidin-3-amine]",357 nM,480 nM,–,–
"O=C(c1ccc(-c2ccccc2)cc1)N1CC(NC2CN(C(=O)c3ccccc3)CC2F)C1 (stereo not shown) [Cpd 58, N-[1-(Biphenyl-4-ylcarbonyl)azetidin-3-yl]-4-fluoro-1-(phenylcarbonyl)pyrrolidin-3-amine]",33 nM,464 nM,–,–
"O=C(c1ccccc1)N1CC[C@H](NC2CN(C(=O)c3sc4ccccc4c3-c3ccccc3)C2)C1 [Cpd 65, (3S)-N-{1-[(3-Phenyl-1-benzothiophen-2-yl)carbonyl]azetidin-3-yl}-1-(phenylcarbonyl)pyrrolidin-3-amine]",103 nM,–,–,–
"O=C(c1ccccc1)N1CC[C@H](NC2CN(C(=O)c3sc4ccccc4c3C3CC3)C2)C1 [Cpd 66, (3S)-N-{1-[(3-Cyclopropyl-1-benzothiophen-2-yl)carbonyl]azetidin-3-yl}-1-(phenylcarbonyl)pyrrolidin-3-amine]",214 nM,–,–,–
"COC1CN(C(=O)c2ccccc2)CC1NC1CN(C(=O)c2ccc(-c3cccc(C(F)(F)F)c3)cc2)C1 (stereo not drawn) [Cpd 71, trans--4-Methoxy-1-(phenylcarbonyl)-N-(1-{[3′-(trifluoromethyl)biphenyl-4-yl]carbonyl}azetidin-3-yl)pyrrolidin-3-amine]",5580 nM,–,–,–

# Continued, in another order:
IC50 [1],IC50 [3],Structure (SMILES),Rat Brain 2AG % VehCntrl (%) @10 μM [2],Rat Brain 2AG % VehCntrl (%) @1 μM [2]
12 nM,–,"O=C(c1ccc(Cc2ccccc2)cc1)N1CC(N[C@H]2CCN(C(=O)c3ccccc3)C2)C1 [Cpd 4, (3S)-N-{1-[(4-Benzylphenyl)carbonyl]azetidin-3-yl}-1-(phenylcarbonyl)pyrrolidin-3-amine]",1033%,–
33.5 nM,–,"O=C(c1ccc2c(Br)cccc2c1)N1CC(N[C@H]2CCN(C(=O)c3ccccc3)C2)C1 [Cpd 22, (3S)-N-{1-[(5-Bromonaphthalen-2-yl)carbonyl]azetidin-3-yl}-1-(phenylcarbonyl)pyrrolidin-3-amine]",–,223%
14.9 nM,–,"O=C(c1ccc2c(-c3ccccc3)cccc2c1)N1CC(N[C@H]2CCN(C(=O)c3ccccc3)C2)C1 [Cpd 23, (3S)-1-(Phenylcarbonyl)-N-{1-[(5-phenylnaphthalen-2-yl)carbonyl]azetidin-3-yl}pyrrolidin-3-amine]",–,293%
8.5 nM,–,"O=C(c1ccc2c(-c3ccccc3C(F)(F)F)cccc2c1)N1CC(N[C@H]2CCN(C(=O)c3ccccc3)C2)C1 [Cpd 24, (3S)-1-(Phenylcarbonyl)-N-[1-({5-[2-(trifluoromethyl)phenyl]naphthalen-2-yl}carbonyl)azetidin-3-yl]pyrrolidin-3-amine]",–,706%
96.7 nM,–,"O=C(c1ccc2c(c1)Cc1ccccc1-2)N1CC(N[C@H]2CCN(C(=O)c3ccccc3)C2)C1 [Cpd 27, (3S)-N-[1-(9H-Fluoren-2-ylcarbonyl)azetidin-3-yl]-1-(phenylcarbonyl)pyrrolidin-3-amine]",–,125%
229 nM,< 5 nM,"O=C(c1ccccc1)N1CC[C@H](NC2CN(C(=O)c3cc4cc(-c5cccc(C(F)(F)F)c5)ccc4s3)C2)C1 [Cpd 51, (3S)-1-(Phenylcarbonyl)-N-[1-({5-[3-(trifluoromethyl)phenyl]-1-benzothiophen-2-yl}carbonyl)azetidin-3-yl]pyrrolidin-3-amine]",–,–
226 nM,6.6 nM,"O=C(c1ccccc1)N1CC[C@H](NC2CN(C(=O)c3cc4cc(-c5ccc(C(F)(F)F)cc5)ccc4s3)C2)C1 [Cpd 52, (3S)-1-(Phenylcarbonyl)-N-[1-({5-[4-(trifluoromethyl)phenyl]-1-benzothiophen-2-yl}carbonyl)azetidin-3-yl]pyrrolidin-3-amine]",–,–
198 nM,–,"O=C(c1ccccc1)N1CCC(NC2CN(C(=O)c3ccc(C(F)c4ccc(C(F)(F)F)cc4)cc3)C2)C1 (stereo not shown) [Cpd 69, N-{1-[(4-{Fluoro[4-(trifluoromethyl)phenyl]methyl}phenyl)carbonyl]azetidin-3-yl}-1-(phenylcarbonyl)pyrrolidin-3-amine]",–,–
